Experimental findings from patent US20070060573A1, “Acyltryptophanols” (priority 2005, published 2007) are described below.

What is called IC50 is the concentration at which inhibition is half-maximal.

The target in the test is T1, human FSH receptor (Homo sapiens, UniProt P23945).
T1 construct: expressed in transfected cells; host or cells: CHO cells (hFSHR clone 16)
T1 sequence (P23945 18-695): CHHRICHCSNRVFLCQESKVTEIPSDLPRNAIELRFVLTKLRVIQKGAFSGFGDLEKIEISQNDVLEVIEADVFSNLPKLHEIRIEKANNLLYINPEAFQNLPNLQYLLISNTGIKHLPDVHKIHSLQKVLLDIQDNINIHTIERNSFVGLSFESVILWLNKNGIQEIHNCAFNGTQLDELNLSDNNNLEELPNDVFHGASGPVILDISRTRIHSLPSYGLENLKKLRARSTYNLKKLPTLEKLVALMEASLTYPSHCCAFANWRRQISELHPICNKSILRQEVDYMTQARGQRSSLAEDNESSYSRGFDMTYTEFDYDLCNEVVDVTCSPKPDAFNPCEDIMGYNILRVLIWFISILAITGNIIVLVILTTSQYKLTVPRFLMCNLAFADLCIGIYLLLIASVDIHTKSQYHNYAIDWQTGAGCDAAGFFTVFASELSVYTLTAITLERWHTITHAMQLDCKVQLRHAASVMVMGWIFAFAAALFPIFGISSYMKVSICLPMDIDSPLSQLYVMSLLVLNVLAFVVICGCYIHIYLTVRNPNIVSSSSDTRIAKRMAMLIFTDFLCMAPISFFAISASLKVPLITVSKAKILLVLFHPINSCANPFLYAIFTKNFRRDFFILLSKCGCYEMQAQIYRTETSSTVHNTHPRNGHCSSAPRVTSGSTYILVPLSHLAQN
Description: HTRF assay for measuring cAMP in cells, FSH-antagonistic effect (in the presence of hFSH). It is filed as cell-based. The settings on record: hFSHR clone 16 cells (CHO cells stably transfected with the human FSH receptor), in the presence of 1e-9 mol/l hFSH, 37° C. for 2 h.
Source text: […]
Background: TR-FRET usually uses a lanthanide donor and a delayed reading to cut background.

With `COc1cc(-c2cc(C(=O)N[C@@H](CO)Cc3c[nH]c4ccccc34)c3nc[nH]c3c2)cc(OC)c1OC` [Example 361, 6-(3,4,5-Trimethoxyphenyl)-1H-benzoimidazole-4-carboxylic acid [(R)-2-hydroxy-1-(1H-indol-3-ylmethyl)ethyl]amide], the IC50 is 4 µM. Regarding `COc1cc(COc2ccccc2CCC(=O)N[C@@H](CO)Cc2c[nH]c3ccccc23)cc(OC)c1OC` [Example 91, N-[(R)-1-(Hydroxymethyl)-2-(1H-indol-3-yl)ethyl]-2-[(3,4,5-trimethoxyphenyl)methoxy]phenylpropanamide], the IC50 was found to be 6 µM. In the case of `COc1ccc(-c2ccc(OC)c(C(=O)N[C@@H](CO)Cc3c[nH]c4ccccc34)c2)cc1F` [Example 307, 3′-Fluoro-4,4′-dimethoxybiphenyl-3-carboxylic acid [(R)-2-hydroxy-1-(1H-indol-3-ylmethyl)ethyl]amide] it was 0.45 µM; in that of `COc1cc(-c2cc(C(=O)N[C@@H](CO)Cc3c[nH]c4ccccc34)c3cc([N+](=O)[O-])ccc3n2)cc(OC)c1OC` [Example 19, N-[(R)-1-(Hydroxymethyl)-2-(1H-indol-3-yl)ethyl]-6-nitro-2-(3,4,5-trimethoxyphenyl)quinoline-4-carboxamide], 6 µM. With `Cc1nc(C)c(-c2cc(C(=O)N[C@@H](CO)Cc3c[nH]c4ccccc34)c3cc(Br)ccc3n2)s1` [Example 108, 6-Bromo-2-(2,4-dimethyl-thiazol-5-yl)quinoline-4-carboxylic acid [(R)-2-hydroxy-1-(1H-indol-3-ylmethyl)ethyl]amide], the 50% inhibitory concentration (IC50) is 3 µM.

Regarding `COc1cc(-c2cc(C(=O)NC(CO)Cc3c[nH]c4cc(F)ccc34)c3ccccc3n2)cc(OC)c1OC` (racemic) [Example 8, N-[(R,S)-2-(6-Fluoro-1H-indol-3-yl)-1-(hydroxymethyl)ethyl]-2-(3,4,5-trimethoxyphenyl)quinoline-4-carboxamide], the IC50 is 1 µM. For the compound `CCOc1ccc(-c2ccc(S(=O)(=O)CC)cc2)cc1C(=O)N[C@@H](CO)Cc1c[nH]c2ccccc12` [Example 483, 4-Ethanesulphonyl-4-ethoxybiphenyl-3-carboxylic [(R)-2-hydroxy-1-(1H-indol-3-ylmethyl)ethyl]amide], the IC50 worked out at 1 µM. In the case of `COc1cc(-c2cc(/C=C\CCCO)cc(C(=O)N[C@@H](CO)Cc3c[nH]c4ccccc34)c2)cc(OC)c1OC` [Example 388, 5-((Z)-5-Hydroxypent-1-enyl)-3′,4′,5′-trimethoxybiphenyl-3-carboxylic acid [(R)-1-hydroxy-methyl-2-(1H-indol-3-yl)ethyl]amide] it was 0.4 µM; in that of `COc1ccc2nc(-c3cc(OC)c(OC)c(OC)c3)cc(C(=O)N[C@H](Cc3c[nH]c4ccccc34)C(C)(C)O)c2c1` [Example 373, 6-Methoxy-2-(3,4,5-trimethoxyphenyl)quinoline-4-carboxylic acid [(R)-2-hydroxy-1-(1H-indol-3-ylmethyl)-2-methylpropyl]amide], 8 µM; in that of `CC(C)c1cccc(-c2cccc(C(=O)N[C@@H](CO)Cc3c[nH]c4ccccc34)c2)c1` [Example 59, N-[(R)-1-(Hydroxymethyl)-2-(1H-indol-3-yl)ethyl]-3′-(1-methylethyl)[1,1′-biphenyl]-3-carboxamide], 6 µM.

On to `O=C(N[C@@H](CO)Cc1c[nH]c2ccccc12)c1cc(-c2ccc3c(c2)OCO3)ccc1OC1CCCC1` [Example 418, 5-Benzo[1,3]dioxol-5-yl-2-cyclopentyloxy-N-[(R)-1-hydroxymethyl-2-(1H-indol-3-yl)ethyl]benzamide], for which the IC50 stood at 0.3 µM. In the case of `CCn1cc(C[C@H](CO)NC(=O)c2cc(-c3cc(F)c(OC)c(F)c3)nc3ccc(OC)cc23)c2ccccc21` [Example 337] it was 3.5 µM; in that of `COc1ccc(-c2cccc(C(=O)N[C@@H](CO)Cc3cn(CCCCC#N)c4ccccc34)c2)cc1F` [Example 403, N-[(R)-2-[1-(4-Cyanobutyl)-1H-indol-3-yl]-1-(hydroxymethyl)ethyl]-3′-fluoro-4′-methoxy[1,1′-biphenyl]-3-carboxamide], 0.1 µM.
